Results: PubChem BioAssay (NCI)
Several values for one entry are separate records, joined by “and”; a condition that tells them apart may be missing. Equal entries are not always repeated.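 Five concentrations, 48 hours, 96-well plates. At the GI50, growth is halved. At the TGI there is no net growth.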

How the values were obtained:
Assay in all cases: NCI tumour cell line growth inhibition, 48 h
NCI-H522 lung = test system: NCI-H522 lung
SK-MEL-5 melanoma = test system: SK-MEL-5 melanoma
A549 NSCLC = test system: A549 NSCLC
BT-549 breast = test system: BT-549 breast
HCC-2998 colon = test system: HCC-2998 colon
SNB-19 CNS = test system: SNB-19 CNS
RXF 393 renal = test system: RXF 393 renal
NCI-H226 lung = test system: NCI-H226 lung
HT29 colon = test system: HT29 colon
T-47D breast = test system: T-47D breast

Structure (SMILES)	TGI (NCI-H522 lung) [µM]	TGI (SK-MEL-5 melanoma)	TGI (A549 NSCLC)	TGI (BT-549 breast)	TGI (HCC-2998 colon)	TGI (SNB-19 CNS)	TGI (RXF 393 renal)	TGI (NCI-H226 lung) [µM]	TGI (HT29 colon) [µM]	TGI (T-47D breast)	GI50 (NCI-H522 lung)	GI50 (SK-MEL-5 melanoma)	GI50 (A549 NSCLC)	GI50 (BT-549 breast)	GI50 (HCC-2998 colon)	GI50 (SNB-19 CNS) [µM]	GI50 (RXF 393 renal)	GI50 (NCI-H226 lung) [µM]	GI50 (HT29 colon) [µM]	GI50 (T-47D breast) [µM]
O=c1cc(-c2ccccc2)oc2ccc(Cl)cc12	> 100	> 100 µM	> 100 µM	> 100 µM	> 100 µM	> 81.7 µM	> 91.2 µM	> 100	> 100	> 100 µM	–	–	–	–	–	–	–	–	–	–
C=C1C(=O)OC2CC(C)C(/C=C/C(C)=O)=CCC12 (stereo not given)	> 100	> 100 µM	> 100 µM	> 100 µM	> 100 µM	> 100 µM	> 100 µM	> 100	> 100	> 100 µM	–	–	–	–	–	–	–	–	–	–
NNc1c(C(N)=O)c2c(N)ncnc2n1C1OC(CO)C(O)C1O (stereo not given)	–	0.194 µM and 0.275 µM	12.7 µM and 3.44 µM	0.624 µM and 0.672 µM	0.0462 µM and 0.0691 µM	8.54 µM and 18.2 µM	0.186 µM and 0.125 µM	–	–	0.104 µM and 0.14 µM	0.0328 µM and 0.152 µM	0.0601 µM and 0.0828 µM	0.0336 µM and 0.0924 µM	0.0355 µM and 0.0407 µM	< 0.0176 µM and 0.0165 µM	0.187	0.0254 µM and < 0.0143 µM	0.251	< 0.0118	–
Cc1cc(NC(=O)NCc2ccc(N3C(N)=NC(N)=NC3(C)C)cc2)ccc1S(=O)(=O)F	> 100	58.7 µM	> 32.1 µM	> 67.6 µM	> 100 µM	> 100 µM	> 100 µM	> 100	> 100	> 100 µM	6.1 µM	1.11 µM	0.528 µM	4.97 µM	1.96 µM	11.7	51.2 µM	> 61.2	0.37	15.7
CC(C)(C)N/N=C(/Cc1nc2c3c(ccc2[nH]c1=O)C(=O)c1ccccc1C3=O)C(=O)NC1=C(Cl)C(=O)c2ccccc2C1=O	> 100	27 µM	> 100 µM	> 100 µM	> 100 µM	> 100 µM	> 100 µM	88.8	30	> 100 µM	–	–	–	–	–	–	–	–	–	–
Cc1ccc(-c2nc(NCCOCCOCCN)nc(N3CCN(c4ccccn4)CC3)n2)cc1	37	25.1 µM	36.3 µM	29.2 µM	21.9 µM	34.9 µM	28.2 µM	34.3	29.1	29.1 µM	18.4 µM	11.8 µM	17.1 µM	14.1 µM	8.01 µM	16.9	13 µM	17.4	8.99	13.7
CCn1c(-c2nonc2N)nc2ccccc21	> 25	> 25 µM	> 25 µM	> 25 µM	> 25 µM	> 25 µM	> 25 µM	> 25	> 25	> 25 µM	> 25 µM	> 25 µM	> 25 µM	> 25 µM	> 25 µM	> 25	16.7 µM	> 14.9	> 25	> 25
Clc1ccc2c(NCCNc3nc(N4CCOCC4)nc4ccccc34)ccnc2c1	3.8	3.15 µM	10.6 µM	4.69 µM	6.54 µM	8.78 µM	3.63 µM	3.57	3.56	8.98 µM	2.03 µM	1.75 µM	2.96 µM	2.07 µM	2.67 µM	2.59	1.61 µM	1.68	1.89	2.82
COc1cc(C2CC(c3ccccc3)=NN2C=O)ccc1Oc1ccnc2cc(Cl)ccc12 (stereo not given)	> 100	–	> 100 µM	14.1 µM	> 100 µM	> 100 µM	47.6 µM	> 100	> 100	39.7 µM	5.28 µM	–	8.87 µM	2.24 µM	> 100 µM	26.6	15.4 µM	5.24	> 100	10.3
COc1ccc(-c2nsc3c2NC(=O)CC3c2ccsc2)cc1 (stereo not given)	4.25	2.76 µM	> 100 µM	40.8 µM	> 22.7 µM	> 100 µM	> 100 µM	16.9	32.8	65.6 µM	0.139 µM	0.0992 µM	0.211 µM	1.28 µM	0.528 µM	1.05	0.367 µM	2.15	0.0643	0.454
Nc1ncn([C@H]2CC(O)[C@@H](CO)S2)c(=O)n1 (stereo not given in full)	> 100	> 100 µM	> 100 µM	> 100 µM	> 100 µM	> 100 µM	> 100 µM	> 100	> 100	> 100 µM	0.154 µM	1.17 µM	2.79 µM	8.27 µM	2.44 µM	16.2	11.1 µM	20.3	1.25	> 100
S=c1ssnc1-c1cc2ccccc2o1	45.9	26.7 µM	32.1 µM	27.7 µM	34.4 µM	36.8 µM	23.3 µM	54.4	29.3	> 100 µM	20.7 µM	13.6 µM	16.3 µM	13.8 µM	16.4 µM	16.7	7.78 µM	23.2	14.3	21.9
CCN(CC)CCOC(COc1cc(C)cc(C)c1)COc1cc(C)cc(C)c1	18.3	3.19 µM	16.9 µM	20.7 µM	3.5 µM	7.36 µM	5.07 µM	23.9	–	6.83 µM	4.51 µM	1.75 µM	4.56 µM	6.12 µM	1.72 µM	2.3	2.06 µM	7.16	–	2.34
Cc1cc(C)c2nc3c(c(C(O)C4CCCCN4)c2c1)CC/C3=C\c1ccc(Cl)cc1 (stereo not given)	> 100	92.2 µM	> 100 µM	> 100 µM	–	> 100 µM	> 100 µM	> 100	> 100	> 100 µM	–	–	–	–	–	–	–	–	–	–
O=C(O)CNc1ccc2c(c1)Cc1cc(Br)ccc1-2	56.8	25.8 µM	> 81.3 µM	58.6 µM	–	> 84.6 µM	> 94.6 µM	> 79.3	97.4	> 100 µM	–	–	–	–	–	–	–	–	–	–
